Patent US20130184321A1, “Model Mouse of Attention Deficit Hyperactivity Disorder, Method for Investigating Effects for Preventing and Alleviating Attention Disorder using the Model Mouse, and Method for Treating Attention Disorder by Suppressing T-Type Calcium Channel” (KOREA ADVANCED INSTITUTE OF SCIENCE AND TECHNOLOGY, priority 2010, published 2013)

Test system: ADHD animal model implanted with cobalt wire
Assay: Changes in brain wave (EEG spikes) of ADHD animal model by T-type calcium channel blocker
Format: in vivo, mouse
Conditions: cobalt wire implanted 7~9 days earlier, brain wave observed for one hour; for spikes observed in the frontal lobe, after vs before treatment: P<0.05
Description: Particularly, to construct the ADHD mouse model, 0.2% avertin in 20 mg/ml of tribromoethanol was administered to the mouse by intraperitoneal injection (i.p.) to anesthetize it. The head of the mouse (B6 mouse at 10˜20 weeks) was fixed on stereotaxic (David Kopf Instruments, Germany) and then cobalt wire (Alfa Aesar) was inserted therein by using holder, a part of stereotaxic. Cobalt wire (Alfa Aesar) of 500 μm in the diameter was inserted radially (vertical direction to the cortical surface) in the location of anteroposteriorally 2.6 mm, laterally 1.8 mm, and ventrally 1.3 mm in the right dorsolateral frontal lobe.
For the record of EEG, epidural electrode was inserted in the right frontal lobe where the cobalt wire was inserted. Other electrodes were inserted in the left frontal lobe and temporal lobe. Particularly, the location for the insertion in the right frontal lobe was anteroposteriorally 2.8 mm and laterally 0.8 mm and the location in the left frontal lobe was anteroposteriorally 2.8 mm and laterally 0.8 mm. […]
After three days of recovery, EEG signals and video images were recorded for 30 days. […]
Particularly, 150 mg/kg of ethosuximide (Sigma-Aldrich, USA) was administered in the abdominal cavity of the ADHD animal model implanted with cobalt wire 7˜9 days earlier, followed by observation of the changes in brain wave for one hour. The mice were placed in the test room having square bottom where they could move freely and brain waves were being recorded from 30 minutes before the ethosuximide administration. The number of spikes was measured before and after the treatment of ethosuximide.
60 mg/kg of zonisamide (Sigma-Aldrich, USA) and 100 mg/kg of phyenytoin (Sigma-Aldrich, USA) were administered respectively in the abdominal cavity of the ADHD animal model implanted with cobalt wire 7˜9 days earlier, followed by observation of the changes in brain wave for one hour. The mice were placed in the test room having square bottom where they could move freely and brain waves were being recorded from 30 minutes before the ethosuximide administration. […]

O=C1NC(=O)C(c2ccccc2)(c2ccccc2)N1 [phyenytoin]
spikes observed in the frontal lobe, after vs before treatment (100 mg/kg in the abdominal cavity): significantly reduced

CCC1(C)CC(=O)NC1=O (stereo not drawn) [ethosuximide]
number of spikes observed in the frontal lobe, after vs before treatment (150 mg/kg in the abdominal cavity): significantly reduced

NS(=O)(=O)Cc1noc2ccccc12 [zonisamide]
spikes observed in the frontal lobe, after vs before treatment (60 mg/kg in the abdominal cavity): significantly reduced
